IC50 data for 42 compounds are collected here from patent US10858335B2 (Rigel Pharmaceuticals, Inc., priority 2014, dated 2020).

One experiment concerns GDF8 signaling (p-SMAD-3 (Ser423/425)). Kind of experiment: AlphaScreen SureFire SMAD3 (p-Ser423/425) assay, GDF8-stimulated cells (GDF pSMAD). It counts as cell-based. The note with it: Mus musculus, MPC-11, GDF8-stimulated pSMAD3, MPC11; tested as the salt form given; read-out: GDF pSMAD (MPC11) (μM), inhibition of GDF8 signaling. In general terms: Alpha assays give light when donor and acceptor beads are brought close together.
Take `Nc1ncnc2ccc(-c3cccnc3-c3cccc(O)c3)cc12` [compound 977, 3-(3-(4-aminoquinazolin-6-yl)pyridin-2-yl)phenol]: the IC50 was 1 µM.
Still for that read-out and setting: under `Fc1cc(-c2ncccc2-c2ccn3nccc3n2)c(F)c(F)c1F` [compound 1053] stands 0.368 µM; under `COc1ccc(Cl)c(-c2ncccc2-c2ccc3ncnc(N)c3c2)c1` [compound 1011, 6-(2-(2-chloro-5-methoxyphenyl)pyridin-3-yl)quinazolin-4-amine], 3.33 µM.
Same read-out and setting: under `Nc1ncnc2ccc(-c3cccnc3-c3cccc(OC(F)F)c3)cc12` [compound 982, 6-(2-(3-(difluoromethoxy)phenyl)pyridin-3-yl)quinazolin-4-amine] stands 0.0411 µM.

Still in this experiment, the particulars now being: Mus musculus, MPC-11, MPC11; GDF8-stimulated; p-SMAD3 AlphaScreen; read-out: GDF pSMAD (MPC11) (inhibition of GDF8 signaling).
As for `Cc1cc(-c2ncccc2-c2ccnc(Nc3ccc(N4CCOCC4)cc3)n2)ccc1F` [compound 904, 4-(2-(4-Fluoro-3-methylphenyl)pyridin-3-yl)-N-(4-morpholinophenyl)pyrimidin-2-amine], the IC50 is 9.07 µM.
Same read-out and setting: under `N#Cc1cnc2ccc(-c3cccnc3-c3cccc(F)c3)cn12` [compound 621, 6-(2-(3-Fluorophenyl)pyridin-3-yl)imidazo[1,2-a]pyridine-3-carbonitrile] stands 3.93 µM; under `Cc1cc(-c2ncccc2-c2ccn3c(C(=O)NCCCN4CCOCC4)ncc3c2)ccc1F` [compound 266, 7-(2-(4-Fluoro-3-methylphenyl)pyridin-3-yl)-N-(3-morpholinopropyl)imidazo[1,5-a]pyridine-3-carboxamide], 4.54 µM.
The same measure, in the same setting: for `Cc1cc(-c2ncccc2-c2ccc3ncc(C(=O)NCCN(C)C)n3c2)ccc1F` [compound 607, N-(2-(Dimethylamino)ethyl)-6-(2-(4-fluoro-3-methylphenyl)pyridin-3-yl)imidazo[1,2-a]pyridine-3-carboxamide] the value was 0.705 µM; for `Cc1cc(-c2ncccc2-c2ccc3ncnc(Nc4cccc(C(N)=O)c4)c3c2)ccc1F` [compound 410, 3-((6-(2-(4-Fluoro-3-methylphenyl)pyridin-3-yl)quinazolin-4-yl)amino)benzamide], 4.13 µM.
As for `Cc1cccc(-c2ncc(NC(=O)NC(C)C)cc2-c2ccc3[nH]ncc3c2)c1` [compound 214, 1-(5-(1H-Indazol-5-yl)-6-(m-tolyl)pyridin-3-yl)-3-isopropylurea], the IC50 was 2.64 µM.
Still for that read-out and setting: for `Cn1cnc2ccc(-c3cccnc3-c3ccc(F)c(Cl)c3F)cc21` [compound 967, 6-(2-(3-Chloro-2,4-difluorophenyl)pyridin-3-yl)-1-methyl-1H-benzo[d]imidazole] the value was 1.44 µM.
As to `Cc1cnc(-c2ccc(F)c(Cl)c2)c(-c2ccn3ncnc3c2)c1` [compound 864, 7-(2-(3-Chloro-4-fluorophenyl)-5-methylpyridin-3-yl)-[1,2,4]triazolo[1,5-a]pyridine], the IC50 was 1.54 µM.
Turning to `Cc1cc(-c2ncccc2-c2ccc3ncc(C(=O)N4CCOCC4)n3c2)ccc1F` [compound 580, (6-(2-(4-Fluoro-3-methylphenyl)pyridin-3-yl)imidazo[1,2-a]pyridin-3-yl)(morpholino)methanone], the IC50 was 8.46 µM.
`CC(=O)c1cnc2ccc(-c3cccnc3-c3ccc(F)c(C)c3)cn12` [compound 586, 1-(6-(2-(4-Fluoro-3-methylphenyl)pyridin-3-yl)imidazo[1,2-a]pyridin-3-yl)ethan-1-one]: the IC50 worked out at 0.617 µM.
Still for that read-out and setting: for `Cc1cccc(-c2ncccc2-c2cc(C)c3[nH]ncc3c2)c1` [Compound 176, 7-Methyl-5-(2-m-tolylpyridin-3-yl)-1H-indazole] the value was 0.057 µM; for `Cc1cc(-c2ncccc2-c2ccc3ncnc(NC4CCCC4)c3c2)ccc1F` [compound 405, N-Cyclopentyl-6-(2-(4-fluoro-3-methylphenyl)pyridin-3-yl)quinazolin-4-amine], 10.7 µM.
Same read-out and setting: under `Cc1cc(-c2ncc(NCc3cccnc3)cc2-c2ccc3ncsc3c2)ccc1F` [compound 306, 5-(Benzo[d]thiazol-6-yl)-6-(4-fluoro-3-methylphenyl)-N-(pyridin-3-ylmethyl)pyridin-3-amine] stands 0.129 µM.
The same measure, in the same setting: for `CC(C)c1cccc(-c2ncc(N)cc2-c2ccc3[nH]ncc3c2)c1` [Compound 16, 5-(1H-Indazol-5-yl)-6-(3-isopropylphenyl)pyridin-3-amine] the value was 6.34 µM; for `Cn1cnc2ccc(-c3cccnc3-c3ccc(F)c(Cl)c3)cc21` [compound 768, 6-(2-(3-Chloro-4-fluorophenyl)pyridin-3-yl)-1-methyl-1H-benzo[d]imidazole], 0.327 µM.
As for `Cc1cc(-c2ncccc2-c2ccc3nccn3n2)ccc1F` [compound 934, 6-(2-(4-Fluoro-3-methylphenyl)pyridin-3-yl)imidazo[1,2-b]pyridazine], the IC50 came to 0.41 µM.
As for `Cc1cc(-c2ncccc2-c2ccn3ncc(C(=O)NCC45CCCN4CCC5)c3c2)ccc1F` [compound 804, 5-(2-(4-Fluoro-3-methylphenyl)pyridin-3-yl)-N-((tetrahydro-1H-pyrrolizin-7a(5H)-yl)methyl)pyrazolo[1,5-a]pyridine-3-carboxamide], the IC50 stood at 10.1 µM.
Same read-out and setting: under `Cc1cc(-c2ncccc2-c2ccc3ncnc(OCC#N)c3c2)ccc1F` [compound 430, 2-((6-(2-(4-Fluoro-3-methylphenyl)pyridin-3-yl)quinazolin-4-yl)oxy)acetonitrile] stands 0.475 µM.
Same read-out and setting: for `Cc1cc(-c2ncccc2-c2ccc3ncc(C(=O)NCCN4CCOCC4)n3c2)ccc1F` [compound 585, 6-(2-(4-Fluoro-3-methylphenyl)pyridin-3-yl)-N-(2-morpholinoethyl)imidazo[1,2-a]pyridine-3-carboxamide] the value was 0.51 µM.
For the compound `Cc1cc(-c2ncccc2-c2ccn3c(C(=O)NCCCN4CCCC4=O)ncc3c2)ccc1F` [compound 274, 7-(2-(4-Fluoro-3-methylphenyl)pyridin-3-yl)-N-(3-(2-oxopyrrolidin-1-yl)propyl)imidazo[1,5-a]pyridine-3-carboxamide], the IC50 amounted to 14.8 µM.
For `Cc1cc(-c2ncccc2-c2ccc3ncn(C)c(=O)c3c2)ccc1F` [compound 340, 6-(2-(4-Fluoro-3-methylphenyl)pyridin-3-yl)-3-methylquinazolin-4(3H)-one], the IC50 was determined as 0.464 µM.
Same read-out and setting: for `Fc1ccc(-c2ncccc2-c2ccc3ncnc(Nc4ccncc4)c3c2)cc1Cl` [compound 492, 6-(2-(3-Chloro-4-fluorophenyl)pyridin-3-yl)-N-(pyridin-4-yl)quinazolin-4-amine] the value was 3.73 µM; for `Cc1cccc(-c2ncccc2-c2ccc3ncccc3n2)c1` [compound 536, 2-(2-(m-Tolyl)pyridin-3-yl)-1,5-naphthyridine], 0.404 µM; for `Fc1ccc(-c2ncccc2-c2ccc3ncsc3c2)c(F)c1` [compound 665, 6-(2-(2,4-Difluorophenyl)pyridin-3-yl)benzo[d]thiazole], 2.36 µM.
On the same count and under the same terms, under `Cc1cc(-c2ncccc2-c2ccn3cncc3c2)ccc1F` [compound 594, 7-(2-(4-Fluoro-3-methylphenyl)pyridin-3-yl)imidazo[1,5-a]pyridine] stands 0.57 µM.
`Cc1ccc(-c2ncccc2-c2ccc3ncnc(N)c3c2)cc1F` [compound 459, 6-(2-(3-Fluoro-4-methylphenyl)pyridin-3-yl)quinazolin-4-amine]: the IC50 is 11.5 µM.
Regarding `CC(C)NC(=O)Nc1cnc(-c2cccc(C3CC3)c2)c(-c2ccc3[nH]ncc3c2)c1` [compound 213, 1-(6-(3-Cyclopropylphenyl)-5-(1H-indazol-5-yl)pyridin-3-yl)-3-isopropylurea], the IC50 stood at 4.44 µM.
Take `COc1cccc(-c2ncccc2-c2cnc3[nH]ncc3c2)c1` [Compound 155, 5-(2-(3-Methoxyphenyl)pyridin-3-yl)-1H-pyrazolo[3,4-b]pyridine]: the IC50 worked out at 0.224 µM.
On the same count and under the same terms, for `Cc1cc(-c2ncccc2-c2ccn3ncc(C(=O)NC4CCN(C(C)C)CC4)c3c2)ccc1F` [compound 701, 5-(2-(4-Fluoro-3-methylphenyl)pyridin-3-yl)-N-(1-isopropylpiperidin-4-yl)pyrazolo[1,5-a]pyridine-3-carboxamide] the value was 0.167 µM; for `Fc1ccc(Cl)cc1-c1ncccc1-c1ccc2nccn2c1` [compound 721, 6-(2-(5-Chloro-2-fluorophenyl)pyridin-3-yl)imidazo[1,2-a]pyridine], 0.44 µM; for `Fc1cc(F)c(-c2ncccc2-c2ccc3nccn3c2)cc1F` [compound 694, 6-(2-(2,4,5-Trifluorophenyl)pyridin-3-yl)imidazo[1,2-a]pyridine], 0.794 µM.
Still for that read-out and setting: under `CCc1cccc(-c2ncccc2-c2cnc3[nH]ncc3c2)c1` [Compound 151, 5-(2-(3-Ethylphenyl)pyridin-3-yl)-1H-pyrazolo[3,4-b]pyridine] stands 0.678 µM; under `Cc1cccc(-c2ncccc2-c2ccc3ncc(N4CCCC4)n3c2)c1` [compound 562, 3-(Pyrrolidin-1-yl)-6-(2-(m-tolyl)pyridin-3-yl)imidazo[1,2-a]pyridine], 9.78 µM.
Still for that read-out and setting: under `Cc1cc(-c2ncccc2-c2ccc3c(cnn3C(=O)NCCCN(C)C)c2)ccc1F` [compound 634, N-(3-(Dimethylamino)propyl)-5-(2-(4-fluoro-3-methylphenyl)pyridin-3-yl)-1H-indazole-1-carboxamide] stands 14.8 µM.
Turning to `Nc1ncnc2ccc(-c3cccnc3-c3cc(F)ccc3F)cc12` [compound 454, 6-(2-(2,5-Difluorophenyl)pyridin-3-yl)quinazolin-4-amine], the IC50 was found to be 0.926 µM.
Same read-out and setting: under `O=c1nc[nH]c2ccc(-c3cccnc3-c3cccc(Cl)c3)cc12` [compound 389, 6-(2-(3-Chlorophenyl)pyridin-3-yl)quinazolin-4(1H)-one] stands 0.187 µM; under `Fc1ccc(-c2ncccc2-c2ccc3nccnc3c2)cc1Cl` [compound 690, 6-(2-(3-Chloro-4-fluorophenyl)pyridin-3-yl)quinoxaline], 0.414 µM; under `Clc1cccc(-c2ncccc2-c2ccc3ncnn3c2)c1` [compound 746, 6-(2-(3-Chlorophenyl)pyridin-3-yl)-[1,2,4]triazolo[1,5-a]pyridine], 0.566 µM.
